Test results reported in paper PMC10756536, “Functional expression and ligand identification of homo- and heteromeric Drosophila melanogaster CO2 receptors in the Xenopus laevis oocyte system” (PLOS ONE, 2023).

Key:
Format in all cases: cell-based
[1] = biological target: T1, Gr21a/Gr63a CO2 receptor (Gr63a) (Drosophila melanogaster, UniProt Q9VPT1+Q9VZL7); assay: two-electrode voltage clamp, Xenopus oocytes, block of NaHCO3 current at […]
T1 construct: with Gr21a
T1 sequence (Q9VZL7 1-512): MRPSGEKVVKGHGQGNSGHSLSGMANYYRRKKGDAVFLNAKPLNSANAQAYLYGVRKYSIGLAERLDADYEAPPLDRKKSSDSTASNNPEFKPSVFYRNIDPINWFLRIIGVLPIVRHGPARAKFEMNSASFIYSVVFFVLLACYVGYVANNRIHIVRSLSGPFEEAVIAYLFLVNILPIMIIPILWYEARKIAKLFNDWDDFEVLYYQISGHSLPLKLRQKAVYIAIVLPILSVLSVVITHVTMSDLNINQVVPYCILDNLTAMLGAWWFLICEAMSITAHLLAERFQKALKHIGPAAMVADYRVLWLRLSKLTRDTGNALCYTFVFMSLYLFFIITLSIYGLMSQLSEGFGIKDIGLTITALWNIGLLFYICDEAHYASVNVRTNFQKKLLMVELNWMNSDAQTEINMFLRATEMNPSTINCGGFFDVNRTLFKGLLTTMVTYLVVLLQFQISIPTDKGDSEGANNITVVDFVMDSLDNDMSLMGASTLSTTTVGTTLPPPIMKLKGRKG
T1 sequence (Q9VPT1 1-447): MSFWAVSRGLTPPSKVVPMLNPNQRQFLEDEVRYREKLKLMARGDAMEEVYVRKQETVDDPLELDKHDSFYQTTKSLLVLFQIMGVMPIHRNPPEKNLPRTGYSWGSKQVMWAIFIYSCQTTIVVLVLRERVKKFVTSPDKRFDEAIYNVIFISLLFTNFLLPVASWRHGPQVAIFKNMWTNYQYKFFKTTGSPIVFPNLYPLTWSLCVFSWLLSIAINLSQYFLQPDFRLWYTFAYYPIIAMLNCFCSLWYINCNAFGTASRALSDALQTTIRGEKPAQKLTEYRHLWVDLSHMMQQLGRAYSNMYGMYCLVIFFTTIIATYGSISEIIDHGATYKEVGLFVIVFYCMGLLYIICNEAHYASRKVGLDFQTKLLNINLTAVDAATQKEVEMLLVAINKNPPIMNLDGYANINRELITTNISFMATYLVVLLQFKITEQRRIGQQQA

[2] = biological target: T1, Gr21a/Gr63a CO2 receptor (Gr63a); assay: two-electrode voltage clamp, Xenopus oocytes, block of […] NaHCO3 current
[3] = biological target: T1, Gr21a/Gr63a CO2 receptor (Gr63a); assay: two-electrode voltage clamp, Xenopus oocytes, agonist current at […]; details: read-out: % of 200 mM NHC response at 10 mM

| SMILES | two-electrode voltage clamp, Xenopus oocytes, block of NaHCO3 current at 10 mM [1] | activation at 10000 µM [3] [%] | other results |
| --- | --- | --- | --- |
| CCCCCCO [1-hexanol] | Gr21/Gr63 were significantly inhibited by 1-octanol, isobutyraldehyde, 1-hexanol | – | – |
| CCCCCCCCO [1-octanol] | Gr21/Gr63 were significantly inhibited by 1-octanol, isobutyraldehyde, 1-hexanol | – | – |
| CC(C)=CCCC(C)CCO (stereo not drawn) [citronellol] | – | – | IC50 [2]: 5.1 ± 0.25 mM |
| CC(C)C=O [isobutyraldehyde] | Gr21/Gr63 were significantly inhibited by 1-octanol, isobutyraldehyde, 1-hexanol | – | – |
| COC(=O)C(C)=O [methyl pyruvate] | – | 29 ± 8 | – |
| CCCCCCN [n-hexylamine] | – | 64 ± 17 | – |
